Key:
Escherichia coli K-12 = assay: In vitro antibacterial activity (MIC, serial dilution), Escherichia coli; conditions: nutrient broth, pH 7.0; 37° C for 48 hours
Description: (§6) The minimum inhibitory concentration (MIC) was
(§7) determined by the well known serial dilution method.
(§8) Medium: nutrient broth, pH 7.0 (5 ml/tube)
(§9) Inoculum: 1 drop of 1 : 10^5 dilution of an
overnight broth culture per tube

[1] = system: Staphylococcus aureus Terajima; assay: In vitro antibacterial activity (MIC, serial dilution), Staphylococcus aureus; conditions: nutrient broth, pH 7.0; 37° C for 48 hours
Description: as §6, §7, §8, §9
overnight broth culture per tube

[2] = system: Pseudomonas aeruginosa Tsuchijima; assay: In vitro antibacterial activity (MIC, serial dilution), Pseudomonas aeruginosa; conditions: nutrient broth, pH 7.0; 37° C for 48 hours
Description: as §6, §7, §8, §9
overnight broth culture per tube

[3] = system: Pseudomonas aeruginosa No. 12; assay: In vivo efficacy against systemic infection with Pseudomonas aeruginosa in mice; conditions: NO.12, 168 h, male ddY-S mice, ip, twice, about 5 minutes and 6 hours after infection, observation 7 days
Description: (§1) In the Tables II and III, the ED50 and LD50 values were calculated in accordance with the Bcherns-Kaerber method [Arch. Exp. Path, Pharm., 162, 480 (1931)].
(§2) 2) In vivo efficacy against systemic infection with
(§3) Pseudomonas aeruginosa and Salmonella typhimurium
*Experimental conditions:
Organism: Pseudomonas aeruginosa No. 12
Mice: male mice (ddY-S) weighing 20 g approximately.
intraperitoneal infection with 50 to 100
LD50 (about 5 × 10^3 cells/mouse) of a
bacterial suspension in 4% gastric mucin.
twice, about 5 minutes and 6 hours after
(§4) Drug: an alkaline solution (pH 8 - 9) for intraperitoneal
(§5) ip: intraperitoneal administration.

[4] = system: Salmonella typhimurium S-9; assay: In vivo efficacy against systemic infection with Salmonella typhimurium in mice; conditions: Salmonella enterica, 336 h, male ddY-S mice, twice a day for 4 days, observation 14 days
Description: as §1, §2, §3
**Experimental conditions:
Organism: Salmonella typhimurium S-9
Ice: male mice (ddY-S) weighing 20 g approximately.
Intraperitoneal infection with 50 to 100
LD50 (about 10^5 cells/mouse) of a bacterial
suspension in a nutrient broth.
twice a day for 4 days from the day of
as §4
administration and suspension in 0.2% carboxymethyl
cellulose for oral administration.
as §5
po: oral administration.

Acute toxicity in mice = conditions: mouse, in vivo
Description: as §1
3) Acute toxicity in mice
Experimental conditions:
Mice: male mice (ddY-S) weighing 20 g approximately
Drug: alkaline solution (pH 8 - 9) for intravenous
administration and suspension in 0.2%
carboxymethyl cellulose for oral administration.
iv: intravenous administration.
ip: oral administration.

SMILES	minimum inhibitory concentration (MIC), Escherichia coli K-12 (Escherichia coli K-12)	minimum inhibitory concentration (MIC), Staphylococcus aureus Terajima [1]	minimum inhibitory concentration (MIC), Pseudomonas aeruginosa Tsuchijima [2]	ED50 [3]	ED50 ([4]; ip)	ED50 ([4]; po)	LD50 at 168 h (Acute toxicity in mice; iv)	LD50 at 168 h (Acute toxicity in mice; po)	LD50 at 168 h (Acute toxicity in mice; male ddY-S mice, iv, observation 7 days)	LD50 at 168 h (Acute toxicity in mice; male ddY-S mice, po, observation 7 days)
C=Cn1cc(C(=O)O)c(=O)c2ccc(N3CCN(C)CC3)nc21 [compound 1276]	1	> 100	10							
C=Cn1cc(C(=O)O)c(=O)c2ccc(N3CCNCC3)nc21 [compound 1424]	1	100	10	3.9 mg/kg	19.3 mg/kg	22.9 mg/kg	354 mg/kg	> 2000 mg/kg		
CCn1cc(C(=O)O)c(=O)c2ccc(N(C)C)nc21 [compound 1249]	1	100	> 100	> 100 mg/kg						
O=C(O)c1cn(Cc2ccccc2)c2cc(N3CCNCC3)ccc2c1=O [compound 1162]	1	30	10							
CCn1cc(C(=O)O)c(=O)c2cnc(N3CCN(C)CC3)cc21 [compound 1317]	3	30	100	50 mg/kg	14.9 mg/kg	23.9 mg/kg	> 500 mg/kg			
C=Cn1cc(C(=O)O)c(=O)c2ccc(N3CCN(C)CC3)cc21 [compound 1493]	1	100	3	17.8 mg/kg	3.4 mg/kg	8.8 mg/kg	> 500 mg/kg	> 2000 mg/kg		
CN1CCN(c2ccc3c(=O)c(C(=O)O)cn(Cc4ccccc4)c3c2)CC1 [compound 1147]	1	> 100	10							
CCn1cc(C(=O)O)c(=O)c2ccc(N3CCN(C)CC3)cc21 [compound 1090]	1	30	30	91.4 mg/kg	9.6 mg/kg	13.6 mg/kg	> 500 mg/kg	2000 mg/kg		
CCn1cc(C(=O)O)c(=O)c2ccc(N3CCNCC3)nc21 [compound 1214]	3	30	10	9.2 mg/kg	18.7 mg/kg	~43.8 mg/kg	> 500 mg/kg			
C=Cn1cc(C(=O)O)c(=O)c2ccc(N3CCN(CC)CC3)cc21 [compound 1557]	1	30	10	19.3 mg/kg	5.1 mg/kg	11.5 mg/kg	354 mg/kg	> 2000 mg/kg		
CCn1cc(C(=O)O)c(=O)c2cnc(N3CCNCC3)cc21 [compound 1367]	3	> 100	30	~12.5 mg/kg	54.5 mg/kg	70.7 mg/kg				
CCn1cc(C(=O)O)c(=O)c2ccc(N3CCNCC3)cc21 [compound 1091]	1	30	10	6.3 mg/kg	15.5 mg/kg	~109 mg/kg	> 500 mg/kg	2000 mg/kg		
CCn1cc(C(=O)O)c(=O)c2cnc(N3CCCC3)nc21 [PA, 5,8-dihydro-8-ethyl-2-pyrrolidino-5-oxopyrido [2,3-d]pyrimidine-6-carboxylic acid, reference compound]	1	10	100	> 100 mg/kg					268 mg/kg	> 4000 mg/kg
CCn1cc(C(=O)O)c(=O)c2ccc(N3CCN(C)CC3)nc21 [compound 1225]	1	100	30							

From US4017622A, “Piperazine derivatives” (Dainippon Pharmaceutical Co., Ltd., priority 1972, dated 1977)
